The source of these data is ChEMBL document CHEMBL1139542, “Synthesis, biological evaluation, and three-dimensional quantitative structure-activity relationship study of small-molecule positive modulators of adrenomedullin” (J Med Chem, 2005).

The structures appear in SMILES notation.

The assay relates to Adrenomedullin (Homo sapiens). The assay can be described thus: Affinity against human adrenomedullin.

In turn, `O=C(CCCCC(=O)NNC(=O)COc1ccccc1)NNC(=O)COc1ccccc1` showed an Affinity of 1%.

As for `Oc1ccc2ccccc2c1OCc1nnc(CCCCCCCCc2nnc(COc3c(O)ccc4ccccc34)n2Nc2ccccc2)n1Nc1ccccc1`, the Affinity was determined as 24%.

On to `O=C(CCCCCCCCC(=O)NNC(=O)COc1ccccc1)NNC(=O)COc1ccccc1`, for which the Affinity was 25%.

In turn, `O=C(CCCCCCC(=O)NNC(=O)COc1ccccc1)NNC(=O)COc1ccccc1` showed an Affinity of 20%.

Regarding `c1ccc(OCc2nnc(CCCCCCCc3nnc(COc4ccccc4)o3)o2)cc1`, the Affinity was 6%.

Compound `Nn1c(CCCCCCCCc2nnc(COc3ccc4ccccc4c3O)n2N)nnc1COc1ccc2ccccc2c1O` gave an Affinity of 42%.

In the case of `c1ccc(Cn2c(CCCCCCc3nnc(COc4ccccc4)n3Cc3ccccc3)nnc2COc2ccccc2)cc1`, the Affinity turned out to be 3%.

Take `Clc1ccc(OCc2nnc(CCCCCCCCc3nnc(COc4ccc(Cl)cc4)n3Nc3ccccc3)n2Nc2ccccc2)cc1`: the Affinity worked out at 51%.

As to `Clc1ccc(OCc2nnc(CCCCCCCCc3nnc(COc4ccc(Cl)cc4Cl)n3Nc3ccccc3)n2Nc2ccccc2)c(Cl)c1`, the Affinity stood at 68%.

The compound `c1ccc(Nn2c(CCCCCCCCc3nnc(COc4ccccc4)n3Nc3ccccc3)nnc2COc2ccccc2)cc1` yielded an Affinity of 81%.

The compound `c1ccc(OCc2nnc(CCCCCCCCc3nnc(COc4ccccc4)o3)o2)cc1` came in with an Affinity of 5%.

Turning to `c1ccc(OCc2nnc(CCCCCCc3nnc(COc4ccccc4)o3)o2)cc1`, the Affinity is 10%.

In the case of `Nn1c(CCCCCCCCc2nnc(COc3c(O)ccc4ccccc34)n2N)nnc1COc1c(O)ccc2ccccc12`, the Affinity came to 46%.

For the compound `c1ccc(OCc2nnc(CCCCc3nnc(COc4ccccc4)o3)o2)cc1`, the Affinity was 18%.

As for `c1ccc(Cn2c(CCCCc3nnc(COc4ccccc4)n3Cc3ccccc3)nnc2COc2ccccc2)cc1`, the Affinity was 19%.

Turning to `Nn1c(CCCCCCCCc2nnc(COc3ccc(Cl)cc3Cl)n2N)nnc1COc1ccc(Cl)cc1Cl`, the Affinity was 48%.

`c1ccc(Cn2c(CCCCCCCc3nnc(COc4ccccc4)n3Cc3ccccc3)nnc2COc2ccccc2)cc1` had an Affinity of 20%.

Compound `c1ccc(OCc2nnc(CCCCCc3nnc(COc4ccccc4)o3)o2)cc1` displayed an Affinity of 4%.

For the compound `c1ccc(Cn2c(CCCCCc3nnc(COc4ccccc4)n3Cc3ccccc3)nnc2COc2ccccc2)cc1`, the Affinity was determined as 14%.

`Oc1c(OCc2nnc(CCCCCCCCc3nnc(COc4ccc5ccccc5c4O)n3Nc3ccccc3)n2Nc2ccccc2)ccc2ccccc12` yielded an Affinity of 83%.

`O=C(CCCCCCCC(=O)NNC(=O)COc1ccccc1)NNC(=O)COc1ccccc1` yielded an Affinity of 7%.

As for `O=C(CCCCCC(=O)NNC(=O)COc1ccccc1)NNC(=O)COc1ccccc1`, the Affinity is 16%.

`c1ccc(Cn2c(CCCCCCCCc3nnc(COc4ccccc4)n3Cc3ccccc3)nnc2COc2ccccc2)cc1` came in with an Affinity of 4%.

Turning to `Nn1c(CCCCCCCCc2nnc(COc3ccc(Cl)cc3)n2N)nnc1COc1ccc(Cl)cc1`, the Affinity was determined as 19%.
